{"source": "patent EP3248604A1", "about": "“AGENTS FOR MODULATION OF WNT-TCF SIGNALLING AND USES THEREOF” (UNIVERSITE DE GENEVE, priority 2016, dated 2017)", "type_in_all_cases": "cell-based, human", "key": {"WNT-TCF targets": {"system": "WNT-TCF targets", "test": "Epistatic rescue with TCF^VP16, Ls174T", "conditions": "CAP2 5µM, 16h", "experimental": "Lentivectors expressing a TCF4^VP16 protein in a vector independently expressing GFP, or vector alone, plus reporter plasmids were transfected into cells. 72h after transfection cells were visually checked for expression of GFP. Independent batches of cells with >80% GFP expression were chosen for further experimentation and treated with or without compounds in DMEM-F12 (with 2.5% FBS) for 16h and collected in Trizol.\nIf the effects of CAP2 on WNT-TCF targets were specific, an activated form of TCF should rescue the repression since CAP2 is likely to act downstream of the APC destruction complex since it was found using an N'Δ form of βCATENIN that is APC insensitive. To activate this last step of canonical WNT signaling, a fusion between TCF and the potent transactivation domain of the viral VP16 protein, TCF^VP16 (Melotti et al., 2014, supra), was used to directly and positively regulate TCF targets. […] Rescue of LGR5, cMYC and ASCL2 repression by CAP2 (at 5µM) was also observed although there was variability between the cell types, similarly to the repression of CDKN1A (Table 8), although in all cases it reversed its enhancement by CAP2 treatment (Table 8)."}, "TCF targets": {"system": "TCF targets", "test": "Microarray transcriptome analysis in Ls174T cells", "conditions": "16h", "experimental": "(§1) Cells treated with compounds were collected in Trizol and RNA was harvested using standard protocols. Quality and quantity of RNA was checked using Nano Series (Agilent Technologies). Samples with a RNA Integrity Number (RIN) >9/10 were chosen and cDNA and cRNA samples were prepared using GeneChip IVT Express kit. Genechip hybridization was done using the same kit and applied to PrimeView U219 human array (Affymetrix) in the Genomic Platform at the Faculty of Medicine, University of Geneva.\nTo test the effects of CAP2 on the transcriptome in a genome-wide manner microarray analyses with Ls174T cells were performed as these have been previously used to determine the genome-wide changes driven by dnTCF activity (van der Flier et al., 2007, Gastroenterology, 132(2): 628-32), the genetic benchmark use here. Ls174T cells were treated with 5 µM CAP2 (batch 3) for 16h, and their transcriptome compared with that of controls treated with DMSO under the same conditions. This dose was chosen since it results in extended WNT-TCF target gene modulation (Table 6)."}, "Chemokine/cytokine": {"system": "Chemokine/cytokine", "test": "RT-qPCR gene expression in Ls174T cells, chemokine/cytokine genes", "set-up": "key: ratio normalized to DMSO control = 1", "conditions": "vs DMSO=1", "experimental": "(§2) RT-qPCR was performed as in Melotti et al. (2014, supra) using BioRad equipment and reagents. Cells cultured in nitro were treated with the desired concentration of drug in DMEM-F12 and reduced serum (2.5% FBS) for 16h, unless otherwise noted, and collected in Trizol (Sigma) before total RNA extraction and cDNA synthesis. Primers were as in Table 1. HPRT (gene encoding Hypoxanthine phosphoribosyltransferase 1) and βACTIN were used as housekeeping controls for normalization.\nNine components of the three pathways (WNT-TCF, BMP/TGFβ and chemokine/cytokine), and the top 6 repressed epigenetic regulators (ZMYND8, EED, SMARCAL1, TBLIXR1, SETD6 and TAF5L) (Figure 12) were tested for their modulation by dnTCF and their timed response to CAP2 treatment. […] DnTCF also repressed the expression of BMP4, SMAD6, IL8, CXCL3 and CXCL5, but expression of IL33 was enhanced. […] BMP4 and ID2 were also repressed at 2 and 4h but SMAD6 was repressed only at 4h. CXCL3 was already repressed at 2h, IL8 was little affected and IL33 and CXCL5 were enhanced at 2h. At 4 h only CXCL3 was repressed and the other three cytokine/chemokine genes tested (IL8, IL33 and CXCL5) were neither enhanced nor repressed. […] All values are normalized ratios with DMSO-controls, which were equated to 1 Table 14"}, "Epigenetic regulators [1]": {"system": "Epigenetic regulators", "test": "RT-qPCR of epigenetic regulators in HT29 cells", "conditions": "0.5 µM", "experimental": "as §2\n(§3) The WNT-TCF-independent repressive activity of CAP2 on epigenetic regulators may be extrapolated to other cancer cells as it was also detected in HT29 and CC14 human colon cancer cells, in MeWo human melanoma cells as well as in U87 and U251 human glioma cells. In all these different human cancer cells, CAP2 (at 0.5 µM) modulated the expression of ZMYND8, SMARCAL1, TBLIXR1, SETD6 and TAF5Ls (Table 15)."}, "Epigenetic regulators [2]": {"system": "Epigenetic regulators", "test": "RT-qPCR of epigenetic regulators in CC14 cells", "conditions": "0.5 µM", "experimental": "as §2, §3"}, "Epigenetic regulators [3]": {"system": "Epigenetic regulators", "test": "RT-qPCR of epigenetic regulators in MeWo cells", "conditions": "0.5 µM", "experimental": "as §2, §3"}, "[4]": {"system": "chromatin components and remodelers", "test": "Microarray analysis of chromatin components and remodelers in Ls174T cells", "conditions": "CAP2-treated cells vs DMSO", "experimental": "as §1\nMining the transcriptome of CAP2-treated cells for CAP2-induced expression changes the public Reactome database for a chromatin organization cluster expanded to include related family members (94 probes) was used."}, "[5]": {"conditions": "Table 9, microarray, Ls174T, 5 µM (batch 3), vs DMSO"}, "[6]": {"conditions": "Table 10, Microarray, CAP2 5 µM"}, "[7]": {"conditions": "microarray, Ls174T, 5 µM, vs DMSO"}}, "data": [{"molecule": "CC1=C(C)C(=O)O[C@@H]([C@](C)(O)[C@]2(O)CC[C@@]3(O)[C@@H]4CC=C5CC=CC(=O)[C@]5(C)[C@H]4CC[C@]23C)C1", "note": "[CAP2]", "values": [{"measurement": "ASCL2 expression, TCF^VP16+ CAP2 / control + CAP2", "setting": "WNT-TCF targets", "value": 1.0}, {"measurement": "AXIN2 expression, TCF^VP16+ CAP2 / control + CAP2", "setting": "WNT-TCF targets", "value": 16.1}, {"measurement": "CDKN1A expression, TCF^VP16+ CAP2 / control + CAP2", "setting": "WNT-TCF targets", "value": 0.5}, {"measurement": "LGR5 expression, TCF^VP16+ CAP2 / control + CAP2", "setting": "WNT-TCF targets", "value": 0.7}, {"measurement": "cMYC expression, TCF^VP16+ CAP2 / control + CAP2", "setting": "WNT-TCF targets", "value": 2.7}, {"measurement": "ASCL2 Fold change", "setting": "TCF targets; [5]", "value": -9}, {"measurement": "AXIN2 Fold change", "setting": "TCF targets; [5]", "value": -4}, {"measurement": "CDKN1A Fold change", "setting": "TCF targets; [5]", "value": 9}, {"measurement": "LGR5 Fold change", "setting": "TCF targets; [5]", "value": -15}, {"measurement": "cMYC Fold change", "setting": "TCF targets; [5]", "value": -10}, {"measurement": "ASCL2 Fold change, Ls174T cells", "setting": "TCF targets; [6]", "value": -9.1}, {"measurement": "AXIN2 Fold change, Ls174T cells", "setting": "TCF targets; [6]", "value": -4.1}, {"measurement": "LGR5 Fold change, Ls174T cells", "setting": "TCF targets; [6]", "value": -15.1}, {"measurement": "cMYC Fold change, Ls174T cells", "setting": "TCF targets; [6]", "value": -10.2}, {"measurement": "share of the 106-gene set of TCF targets repressed by 1.5-fold or more", "setting": "TCF targets; microarray, Ls174T, 5 µM", "value": 70, "unit": "%"}, {"measurement": "downregulation of ASCL2", "setting": "TCF targets; [7]", "value": 9, "unit": "fold"}, {"measurement": "downregulation of AXIN2", "setting": "TCF targets; [7]", "value": 4, "unit": "fold"}, {"measurement": "downregulation of LGR5", "setting": "TCF targets; [7]", "value": 15, "unit": "fold"}, {"measurement": "CXCL3 expression", "setting": "Chemokine/cytokine; 5µM batch 3, 2h post-treatment", "value": 0.2}, {"measurement": "CXCL5 expression", "setting": "Chemokine/cytokine; 5µM batch 3, 2h post-treatment", "value": 1.3}, {"measurement": "IL8 expression", "setting": "Chemokine/cytokine; 5µM batch 3, 2h post-treatment", "value": 0.7}, {"measurement": "IL33 expression", "setting": "Chemokine/cytokine; 5µM batch 3, 2h post-treatment", "value": 1.4}, {"measurement": "CXCL3 expression", "setting": "Chemokine/cytokine; 5µM batch 3, 4h post-treatment", "value": 0.1}, {"measurement": "CXCL5 expression", "setting": "Chemokine/cytokine; 5µM batch 3, 4h post-treatment", "value": 1.1}, {"measurement": "IL8 expression", "setting": "Chemokine/cytokine; 5µM batch 3, 4h post-treatment", "value": 0.8}, {"measurement": "IL33 expression", "setting": "Chemokine/cytokine; 5µM batch 3, 4h post-treatment", "value": 1.1}, {"measurement": "EED expression", "setting": "Epigenetic regulators [1]", "value": 0.3}, {"measurement": "SETD6 expression", "setting": "Epigenetic regulators [1]", "value": 0.2}, {"measurement": "SMARCAL1 expression", "setting": "Epigenetic regulators [1]", "value": 0.2}, {"measurement": "TAF5L expression", "setting": "Epigenetic regulators [1]", "value": 0.4}, {"measurement": "TBL1XR1 expression", "setting": "Epigenetic regulators [1]", "value": 0.02}, {"measurement": "ZMYND8 expression", "setting": "Epigenetic regulators [1]", "value": 0.1}, {"measurement": "EED expression", "setting": "Epigenetic regulators [2]", "value": 0.3}, {"measurement": "SETD6 expression", "setting": "Epigenetic regulators [2]", "value": 0.4}, {"measurement": "SMARCAL1 expression", "setting": "Epigenetic regulators [2]", "value": 0.2}, {"measurement": "TAF5L expression", "setting": "Epigenetic regulators [2]", "value": 0.5}, {"measurement": "TBL1XR1 expression", "setting": "Epigenetic regulators [2]", "value": 0.2}, {"measurement": "ZMYND8 expression", "setting": "Epigenetic regulators [2]", "value": 0.1}, {"measurement": "EED expression", "setting": "Epigenetic regulators [3]", "value": 0.5}, {"measurement": "SETD6 expression", "setting": "Epigenetic regulators [3]", "value": 1}, {"measurement": "SMARCAL1 expression", "setting": "Epigenetic regulators [3]", "value": 0.2}, {"measurement": "TAF5L expression", "setting": "Epigenetic regulators [3]", "value": 0.8}, {"measurement": "TBL1XR1 expression", "setting": "Epigenetic regulators [3]", "value": 0.2}, {"measurement": "ZMYND8 expression", "setting": "Epigenetic regulators [3]", "value": 0.1}, {"measurement": "EED repression", "setting": "[4]", "value": 8, "unit": "fold"}, {"measurement": "SMARCAL1 repression", "setting": "[4]", "value": 6, "unit": "fold"}, {"measurement": "ZMYND8 repression", "setting": "[4]", "value": 28, "unit": "fold"}]}]}
